Values quoted from earlier work in patent US20070077261A1 (priority 2005, published 2007).

Conditions: amount dissolving in 2 ml of glycerin; The Merck Index, 11th Edition

In the case of `NC(N)=O` [urea], the “solubility of urea in glycerin” value is listed as 1 gram.
